According to patent publication US11339161B2, “Triazolo pyridines as modulators of gamma-secretase” (Boehringer Ingelheim International GmbH, priority 2017, dated 2022):
Read-outs that look alike come from different tables or passages of the source.

How the values were obtained:
CDK5/p35 = CDK5/p35 (Homo sapiens, UniProt Q00535); assay: Z'-LYTE SelectScreen biochemical kinase assay CDK5/p35
Description: (§1) Thermo Fisher Scientific SelectScreen™ Biochemical Kinase Profiling Service Z′-LYTE™ Screening Protocol and Assay Conditions Assay Theory
(§2) The […] biochemical assay employs a fluorescence-based, coupled-enzyme format and is based on the differential sensitivity of phosphorylated and non-phosphorylated peptides to proteolytic cleavage. The peptide substrate is labeled with two fluorophores—one at each end—that make up a FRET pair. In the primary reaction, the kinase transfers the gamma-phosphate of ATP to a single tyrosine, serine or threonine residue in a synthetic FRET-peptide. In the secondary reaction, a site-specific protease recognizes and cleaves non-phosphorylated FRET-peptides. Phosphorylation of FRET-peptides suppresses cleavage by the Development Reagent. Cleavage disrupts FRET between the donor (i.e., coumarin) and acceptor (i.e., fluorescein) fluorophores on the FRET-peptide, whereas uncleaved, phosphorylated FRET-peptides maintain FRET. A ratiometric method, which calculates the ratio (Emission Ratio=Coumarin emission (445 nm)/Fluorescein emission (520 nm)) of donor emission to acceptor emission after excitation of the donor fluorophore at 400 nm, is used to quantitate reaction progress, as shown in the equation below. A significant benefit of this ratiometric method for quantitating reaction progress is the elimination of well-to-well variations in FRET-peptide concentration and signal intensities. As a result, the assay yields very high Z′-factor values (>0.7) at a low percent phosphorylation. Both cleaved and uncleaved FRET-peptides contribute to the fluorescence signals and therefore to the Emission Ratio. The extent of phosphorylation of the FRET-peptide can be calculated from the Emission Ratio. The Emission Ratio will remain low if the FRET-peptide is phosphorylated (i.e., no kinase inhibition) and will be high if the FRET-peptide is non-phosphorylated (i.e., kinase inhibition).
(§3) The Test Compounds are screened in 1% DMSO (final) in the well. For 10 point titrations, 3-fold serial dilutions are conducted from the starting concentration of the customer's choosing.
(§4) All Peptide/Kinase Mixtures are diluted to a 2× working concentration in the appropriate Kinase Buffer (see section Kinase Specific Assay Conditions for a complete description).
(§5) All ATP Solutions are diluted to a 4× working concentration in Kinase Buffer (50 mM HEPES pH 7.5, 0.01% BRIJ-35, 10 mM MgCl2, 1 mM EGTA). ATP Km apparent is previously determined using a Z″-LYTE assay.
(§6) The Development Reagent is diluted in Development Buffer (see section Kinase-Specific Assay Conditions—Direct and Cascade for a complete description).
(§7) Bar-coded Corning, low volume NBS, black 384-well plate (Corning Cat. #4514) • 1. 100 nL—100× Test Compound in 100% DMSO • 2. 2.4 μL—Kinase buffer • 3. 5 μL—2× Peptide/Kinase Mixture • 4. 2.5 μL—4×ATP Solution • 5. 30—second plate shake • 6. 60—minute Kinase Reaction incubation at room temperature • 7. 5 μL—Development Reagent Solution • 8. 30—second plate shake • 9. 60—minute Development Reaction incubation at room temperature • 10. Read on fluorescence plate reader and analyze the data Z′-LYTE Assay Controls
(§8) SelectScreen Kinase Profiling Service uses XLfit from IDBS. The dose response curve is curve fit to model number 205 (sigmoidal dose-response model).
(§9) The 2×CDK5/p35/Ser/Thr 12 mixture is prepared in 50 mM HEPES pH 7.5, 0.01% BRIJ-35, 10 mM MgCl2, 1 mM EGTA. The final 10 μL Kinase Reaction consists of 0.14-1.3 ng CDK5/p35 and 2 μM Ser/Thr 12 in 50 mM HEPES pH 7.5, 0.01% BRIJ-35, 10 mM MgCl2, 1 mM EGTA. After the 1 hour Kinase Reaction incubation, 5 μL of a 1:4096 dilution of Development Reagent A is added.

KDR (VEGFR2) = KDR (VEGFR2) (Homo sapiens, UniProt P35968); assay: Z'-LYTE SelectScreen biochemical kinase assay KDR (VEGFR2)
Description: as §1, §2, §3, §4, §5, §6, §7, §8
The 2×KDR (VEGFR2)/Tyr 01 mixture is prepared in 50 mM HEPES pH 7.5, 0.01% BRIJ-35, 10 mM MgCl2, 1 mM EGTA. The final 10 μL Kinase Reaction consists of 1-30 ng KDR (VEGFR2) and 2 μM Tyr 01 in 50 mM HEPES pH 7.5, 0.01% BRIJ-35, 10 mM MgCl2, 1 mM EGTA. After the 1 hour Kinase Reaction incubation, 5 μL of a 1:256 dilution of Development Reagent B is added.

PDGFRA (PDGFR alpha) = PDGFRA (PDGFR alpha) (Homo sapiens, UniProt P16234); assay: Z'-LYTE SelectScreen biochemical kinase assay PDGFRA (PDGFR alpha)
Description: as §1, §2, §3, §4, §5, §6, §7, §8
The 2×PDGFRA (PDGFR alpha)/Tyr 04 mixture is prepared in 50 mM HEPES pH 7.5, 0.01% BRIJ-35, 10 mM MgCl2, 4 mM MnCl2, 1 mM EGTA, 2 mM DTT. The final 10 μL Kinase Reaction consists of 1.54-22.6 ng PDGFRA (PDGFR alpha) and 2 μM Tyr 04 in 50 mM HEPES pH 7.5, 0.01% BRIJ-35, 10 mM MgCl2, 2 mM MnCl2, 1 mM EGTA, 1 mM DTT. After the 1 hour Kinase Reaction incubation, 5 μL of a 1:64 dilution of Development Reagent B is added.

RET = RET (Homo sapiens, UniProt P07949); assay: Z'-LYTE SelectScreen biochemical kinase assay RET
Description: as §1, §2, §3, §4, §5, §6, §7, §8
as §9, with “2×RET/Tyr 02” for “2×CDK5/p35/Ser/Thr 12”, “0.49-3.64” for “0.14-1.3”, “RET” for “CDK5/p35”, “Tyr 02” for “Ser/Thr 12”, “1:128” for “1:4096”

[1] = 10 μmolar compound concentration, ATP at Km app, read-out: CDK5/p35 inhibition
[2] = read-out: % Inhibition mean CDK5/p35
[3] = 10 μmolar compound concentration, ATP at Km app, read-out: KDR (VEGFR2) inhibition
[4] = read-out: % Inhibition mean KDR (VEGFR2)
[5] = 10 μmolar compound concentration, ATP at Km app, read-out: PDGFRA (PDGFR alpha) inhibition
[6] = read-out: % Inhibition mean PDGFRA (PDGFR alpha)
[7] = 10 μmolar compound concentration, ATP at Km app, read-out: RET inhibition
[8] = read-out: % Inhibition mean RET

RET, sequence (P07949 29-1114): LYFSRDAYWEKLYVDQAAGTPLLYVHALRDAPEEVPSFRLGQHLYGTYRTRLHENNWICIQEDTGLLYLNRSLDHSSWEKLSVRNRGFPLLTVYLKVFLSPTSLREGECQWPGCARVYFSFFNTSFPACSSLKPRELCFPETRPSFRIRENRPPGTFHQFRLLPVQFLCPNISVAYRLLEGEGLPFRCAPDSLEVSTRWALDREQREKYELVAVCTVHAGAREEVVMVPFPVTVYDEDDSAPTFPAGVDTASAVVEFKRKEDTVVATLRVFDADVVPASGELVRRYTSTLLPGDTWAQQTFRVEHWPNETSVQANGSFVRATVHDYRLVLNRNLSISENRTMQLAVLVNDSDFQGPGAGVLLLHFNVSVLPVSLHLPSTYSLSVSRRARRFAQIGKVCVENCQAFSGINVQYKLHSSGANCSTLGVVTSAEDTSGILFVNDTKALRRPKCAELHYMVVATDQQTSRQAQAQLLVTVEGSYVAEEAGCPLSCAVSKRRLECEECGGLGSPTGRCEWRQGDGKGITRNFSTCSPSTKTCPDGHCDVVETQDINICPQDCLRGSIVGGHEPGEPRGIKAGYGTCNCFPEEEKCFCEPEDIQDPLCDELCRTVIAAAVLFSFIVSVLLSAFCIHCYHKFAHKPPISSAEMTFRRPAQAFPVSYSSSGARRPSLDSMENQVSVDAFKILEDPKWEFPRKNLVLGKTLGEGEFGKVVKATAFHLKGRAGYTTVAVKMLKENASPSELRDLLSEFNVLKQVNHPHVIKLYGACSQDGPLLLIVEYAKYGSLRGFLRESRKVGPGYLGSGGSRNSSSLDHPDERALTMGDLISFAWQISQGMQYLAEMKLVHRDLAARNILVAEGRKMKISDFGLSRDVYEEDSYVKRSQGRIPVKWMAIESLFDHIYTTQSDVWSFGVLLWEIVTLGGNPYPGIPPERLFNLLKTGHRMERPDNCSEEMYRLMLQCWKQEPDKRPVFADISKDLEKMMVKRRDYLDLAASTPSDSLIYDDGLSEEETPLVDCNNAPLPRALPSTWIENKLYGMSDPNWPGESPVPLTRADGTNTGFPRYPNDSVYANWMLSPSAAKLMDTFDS
PDGFRA (PDGFR alpha), sequence (P16234 24-1089): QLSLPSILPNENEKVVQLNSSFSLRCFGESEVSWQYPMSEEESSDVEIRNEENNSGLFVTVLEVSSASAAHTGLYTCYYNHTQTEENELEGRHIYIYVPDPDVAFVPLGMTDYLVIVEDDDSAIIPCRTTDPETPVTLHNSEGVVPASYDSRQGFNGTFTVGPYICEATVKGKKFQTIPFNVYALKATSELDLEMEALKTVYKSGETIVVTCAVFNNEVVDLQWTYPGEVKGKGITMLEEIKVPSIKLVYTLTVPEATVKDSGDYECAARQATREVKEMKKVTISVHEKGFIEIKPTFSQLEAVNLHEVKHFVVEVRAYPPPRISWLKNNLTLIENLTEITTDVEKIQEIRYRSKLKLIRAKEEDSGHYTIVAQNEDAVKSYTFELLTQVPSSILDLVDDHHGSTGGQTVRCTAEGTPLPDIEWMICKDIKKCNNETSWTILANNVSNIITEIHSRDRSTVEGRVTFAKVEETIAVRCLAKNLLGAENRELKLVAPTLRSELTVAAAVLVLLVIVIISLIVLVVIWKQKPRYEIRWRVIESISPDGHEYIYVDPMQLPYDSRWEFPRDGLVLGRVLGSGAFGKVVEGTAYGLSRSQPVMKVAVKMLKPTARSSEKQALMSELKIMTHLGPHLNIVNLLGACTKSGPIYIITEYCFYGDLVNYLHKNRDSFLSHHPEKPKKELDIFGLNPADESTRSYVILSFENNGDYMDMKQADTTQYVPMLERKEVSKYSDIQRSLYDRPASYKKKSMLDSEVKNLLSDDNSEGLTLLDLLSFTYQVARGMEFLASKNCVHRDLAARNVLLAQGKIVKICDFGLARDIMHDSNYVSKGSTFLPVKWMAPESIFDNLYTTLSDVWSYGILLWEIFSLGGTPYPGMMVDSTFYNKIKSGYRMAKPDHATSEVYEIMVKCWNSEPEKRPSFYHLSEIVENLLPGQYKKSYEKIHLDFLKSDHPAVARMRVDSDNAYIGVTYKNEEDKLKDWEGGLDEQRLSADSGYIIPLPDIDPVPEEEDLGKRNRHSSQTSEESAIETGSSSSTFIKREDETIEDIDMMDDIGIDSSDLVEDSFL
CDK5/p35, sequence (Q00535 whole entry): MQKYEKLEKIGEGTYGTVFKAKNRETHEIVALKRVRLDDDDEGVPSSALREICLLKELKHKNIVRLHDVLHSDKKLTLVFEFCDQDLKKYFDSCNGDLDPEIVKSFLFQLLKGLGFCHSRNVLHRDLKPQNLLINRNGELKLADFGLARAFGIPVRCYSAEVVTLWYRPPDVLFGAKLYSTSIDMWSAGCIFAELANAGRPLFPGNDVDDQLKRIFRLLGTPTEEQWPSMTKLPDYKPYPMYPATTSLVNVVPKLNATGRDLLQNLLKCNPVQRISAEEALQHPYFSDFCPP
CDK5/p35, sequence (Q15078 whole entry partner): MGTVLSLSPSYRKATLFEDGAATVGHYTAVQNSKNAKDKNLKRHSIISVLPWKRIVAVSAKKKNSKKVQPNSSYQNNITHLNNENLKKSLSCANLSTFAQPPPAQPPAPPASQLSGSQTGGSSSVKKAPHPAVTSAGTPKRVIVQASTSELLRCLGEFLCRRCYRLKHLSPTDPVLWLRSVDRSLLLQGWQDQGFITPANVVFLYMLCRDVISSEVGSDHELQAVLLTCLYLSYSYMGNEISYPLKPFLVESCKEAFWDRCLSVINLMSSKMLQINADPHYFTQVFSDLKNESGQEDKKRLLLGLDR
KDR (VEGFR2), sequence (P35968 20-1356): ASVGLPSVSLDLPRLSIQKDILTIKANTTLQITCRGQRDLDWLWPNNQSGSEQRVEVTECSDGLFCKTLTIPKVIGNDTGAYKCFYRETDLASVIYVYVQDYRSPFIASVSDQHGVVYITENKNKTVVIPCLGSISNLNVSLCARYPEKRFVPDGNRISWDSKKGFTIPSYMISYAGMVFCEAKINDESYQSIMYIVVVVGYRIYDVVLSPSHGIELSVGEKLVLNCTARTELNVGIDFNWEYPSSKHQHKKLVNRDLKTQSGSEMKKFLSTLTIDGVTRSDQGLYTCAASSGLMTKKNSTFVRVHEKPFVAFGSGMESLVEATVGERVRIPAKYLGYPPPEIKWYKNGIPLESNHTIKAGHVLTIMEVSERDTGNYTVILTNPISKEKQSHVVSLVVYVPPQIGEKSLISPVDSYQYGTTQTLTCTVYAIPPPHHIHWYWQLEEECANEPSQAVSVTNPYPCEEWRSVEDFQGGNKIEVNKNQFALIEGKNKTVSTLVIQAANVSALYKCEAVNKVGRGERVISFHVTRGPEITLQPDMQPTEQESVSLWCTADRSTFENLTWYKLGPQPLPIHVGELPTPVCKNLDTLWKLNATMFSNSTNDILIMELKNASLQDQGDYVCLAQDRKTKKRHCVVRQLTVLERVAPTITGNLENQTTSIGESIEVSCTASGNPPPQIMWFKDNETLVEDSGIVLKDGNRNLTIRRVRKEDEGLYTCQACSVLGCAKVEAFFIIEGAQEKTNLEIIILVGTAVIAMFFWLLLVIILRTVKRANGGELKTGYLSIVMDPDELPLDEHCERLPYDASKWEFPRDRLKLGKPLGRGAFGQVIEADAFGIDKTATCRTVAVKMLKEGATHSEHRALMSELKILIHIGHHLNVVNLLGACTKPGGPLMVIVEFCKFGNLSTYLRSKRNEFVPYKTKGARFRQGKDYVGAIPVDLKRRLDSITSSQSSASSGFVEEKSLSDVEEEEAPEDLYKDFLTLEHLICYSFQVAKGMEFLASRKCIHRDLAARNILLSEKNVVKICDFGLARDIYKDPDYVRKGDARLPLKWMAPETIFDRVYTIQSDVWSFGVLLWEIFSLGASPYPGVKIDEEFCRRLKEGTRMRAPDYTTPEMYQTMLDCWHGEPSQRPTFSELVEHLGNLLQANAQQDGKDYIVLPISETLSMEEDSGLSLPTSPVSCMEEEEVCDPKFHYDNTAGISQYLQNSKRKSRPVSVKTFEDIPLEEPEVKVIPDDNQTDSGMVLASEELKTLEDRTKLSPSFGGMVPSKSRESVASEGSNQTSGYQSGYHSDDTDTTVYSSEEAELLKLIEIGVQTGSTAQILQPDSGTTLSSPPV

## Cc1cc(F)ccc1-c1cccn2nc(Nc3ccc4c(cnn4C)c3)nc12 [Example 9, [8-(4-fluoro-2-methyl-phenyl)-[1,2,4]triazolo[1,5-a]pyridine-2-yl]-(1-methyl-1H-indazol-5-yl)-amine]
CDK5/p35; [1]
  inhibition at 10 µM: 40 to 80%
CDK5/p35; [2]
  inhibition at 10 µM: 42%
KDR (VEGFR2); [3]
  inhibition at 10 µM: < 40%
KDR (VEGFR2); [4]
  inhibition at 10 µM: 30%
PDGFRA (PDGFR alpha); [5]
  inhibition at 10 µM: 40 to 80%
PDGFRA (PDGFR alpha); [6]
  inhibition at 10 µM: 59%
RET; [7]
  inhibition at 10 µM: < 40%
RET; [8]
  inhibition at 10 µM: 39%

## CCn1ncc2c1C(C)CC(Nc1nc3c(-c4cc(F)c(F)c(F)c4)cccn3n1)C2 (stereo not drawn) [Example 49, (1-Ethyl-7-methyl-4,5,6,7-tetrahydro-1H-indazol-5-yl)-[8-(3,4,5-trifluoro-phenyl)-[1,2,4]triazolo[1,5-a]pyridine-2-yl]-amine]
CDK5/p35; [1]
  inhibition at 10 µM: < 40%
CDK5/p35; [2]
  inhibition at 10 µM: 7%
KDR (VEGFR2); [3]
  inhibition at 10 µM: < 40%
KDR (VEGFR2); [4]
  inhibition at 10 µM: 8%
PDGFRA (PDGFR alpha); [5]
  inhibition at 10 µM: < 40%
PDGFRA (PDGFR alpha); [6]
  inhibition at 10 µM: 29%
RET; [7]
  inhibition at 10 µM: < 40%
RET; [8]
  inhibition at 10 µM: 22%

## CCn1ncc2c1CCC(Nc1nc3c(-c4ccccc4)cccn3n1)C2 (stereo not drawn) [Example 57, (1-Ethyl-4,5,6,7-tetrahydro-1H-indazol-5-yl)-(8-phenyl-[1,2,4]triazolo[1,5-a]pyridine-2-yl)-amine]
CDK5/p35; [1]
  inhibition at 10 µM: < 40%
CDK5/p35; [2]
  inhibition at 10 µM: 26%
KDR (VEGFR2); [3]
  inhibition at 10 µM: < 40%
KDR (VEGFR2); [4]
  inhibition at 10 µM: 18%
PDGFRA (PDGFR alpha); [5]
  inhibition at 10 µM: < 40%
PDGFRA (PDGFR alpha); [6]
  inhibition at 10 µM: 29%
RET; [7]
  inhibition at 10 µM: < 40%

## CCCn1ncc2c1CCC(Nc1nc3c(-c4ccc(F)cc4C)cccn3n1)C2 (stereo not drawn) [Example 43, [8-(4-fluoro-2-methyl-phenyl)-[1,2,4]triazolo[1,5-a]pyridine-2-yl]-(1-propyl-4,5,6,7-tetrahydro-1H-indazol-5-yl)-amine]
CDK5/p35; [1]
  inhibition at 10 µM: < 40%
CDK5/p35; [2]
  inhibition at 10 µM: 36%
KDR (VEGFR2); [3]
  inhibition at 10 µM: < 40%
KDR (VEGFR2); [4]
  inhibition at 10 µM: -3%
PDGFRA (PDGFR alpha); [5]
  inhibition at 10 µM: < 40%
PDGFRA (PDGFR alpha); [6]
  inhibition at 10 µM: 16%
RET; [7]
  inhibition at 10 µM: < 40%
RET; [8]
  inhibition at 10 µM: 26%

## Cc1cc(F)ccc1-c1cccn2nc(NC3CCc4c(cnn4C(C)C)C3)nc12 (stereo not drawn) [Example 44, [8-(4-fluoro-2-methyl-phenyl)-[1,2,4]triazolo[1,5-a]pyridine-2-yl]-(1-isopropyl-4,5,6,7-tetrahydro-1H-indazol-5-yl)-amine]
CDK5/p35; [1]
  inhibition at 10 µM: < 40%
CDK5/p35; [2]
  inhibition at 10 µM: 25%
KDR (VEGFR2); [3]
  inhibition at 10 µM: < 40%
KDR (VEGFR2); [4]
  inhibition at 10 µM: 3%
PDGFRA (PDGFR alpha); [5]
  inhibition at 10 µM: < 40%
PDGFRA (PDGFR alpha); [6]
  inhibition at 10 µM: 5%
RET; [7]
  inhibition at 10 µM: < 40%
RET; [8]
  inhibition at 10 µM: 20%
